Laboratory results published in article PMC11286609, “In vitro and in vivo analyses of eFAP: a novel FAP-targeting small molecule for radionuclide theranostics and other oncological interventions” (EJNMMI Radiopharmacy and Chemistry, 2024).

What was measured:
[1] = molecular target: T1, prolyl oligopeptidase (PREP) (Homo sapiens, UniProt P48147); experiment: Enzymatic inhibition assay, PREP; format: biochemical; details: for IC50: recombinant PREP, n = 3, picture: nM ± 95% CI; for SI PREP/huFAP: selectivity index, IC50 PREP / IC50 huFAP
T1 construct: purchased R&D Systems
T1 sequence (P48147 1-710): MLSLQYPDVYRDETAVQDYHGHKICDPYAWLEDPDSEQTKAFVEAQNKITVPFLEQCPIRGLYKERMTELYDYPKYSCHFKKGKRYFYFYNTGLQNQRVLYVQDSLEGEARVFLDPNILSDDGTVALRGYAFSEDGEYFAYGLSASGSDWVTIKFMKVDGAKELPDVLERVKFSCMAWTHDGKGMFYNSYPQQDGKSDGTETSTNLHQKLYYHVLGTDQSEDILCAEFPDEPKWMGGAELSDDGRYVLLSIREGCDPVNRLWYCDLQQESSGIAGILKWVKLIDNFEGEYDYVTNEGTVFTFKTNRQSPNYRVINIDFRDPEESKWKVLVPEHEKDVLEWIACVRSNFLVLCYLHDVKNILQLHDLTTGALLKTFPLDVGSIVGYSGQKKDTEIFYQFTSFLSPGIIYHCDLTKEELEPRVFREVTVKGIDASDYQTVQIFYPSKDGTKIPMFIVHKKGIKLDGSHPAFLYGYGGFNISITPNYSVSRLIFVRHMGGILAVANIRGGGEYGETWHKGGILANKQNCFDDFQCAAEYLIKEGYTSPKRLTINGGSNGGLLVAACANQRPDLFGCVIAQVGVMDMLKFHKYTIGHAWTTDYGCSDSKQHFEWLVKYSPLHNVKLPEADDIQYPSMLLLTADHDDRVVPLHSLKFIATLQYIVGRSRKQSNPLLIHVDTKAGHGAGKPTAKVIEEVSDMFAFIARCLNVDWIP
Method: (§1) All enzymatic assays were performed in black 384-well plates, and enzymatic activity was measured on a microplate reader, monitoring the fluorescence at λEX 350 nm/λEM 485 nm. […] Val-boroPro (10^− 4 M) and assay buffer served as a positive and negative control, respectively. To measure inhibition of PREP, 50 µL of the reaction mixture containing 1 µM Z-Gly-Pro-AMC and 10 ng PREP (R&D Systems; Minneapolis, MN, USA) were used. The enzymatic assay of DPP4 contained substrate (100 µM), DPP4 (Abcam; Cambridge, UK) (10 nM), assay buffer, and increasing concentrations of the inhibitors (10^− 10 M to 10^− 4 M). Sitagliptin (10^− 4 M) and assay buffer were used as a positive and negative control, respectively. H-Gly-Pro-AMC (100 µM) in assay buffer was used as a baseline control. The plates were analyzed in a Hidex Sense Microplate reader (Hidex; Turku, Finland) at 37 °C under dark conditions for 1 h (huFAP), 2 h (muFAP), or 30 min (PREP, DPP4). For all assays, the components were kept on ice before plating.
(§2) All statistical analyses were performed with GraphPad Prism version 9.0 (San Diego, California USA). All IC50 values were determined using a non-linear regression Log(inhibitor) vs. response analysis with variable slope (four parameters). For the in vivo results outliers were identified by a ROUT test (Q = 1%) and excluded. Next, a two-tailed student’s t-test was performed (*p < 0.05, **p < 0.01, ***p < 0.001). All experiments were performed in triplicate and repeated at least three times.

muFAP = molecular target: T2, muFAP (Mus musculus, UniProt P97321); experiment: Recombinant enzymatic inhibition assay, muFAP (Z-Gly-Pro-AMC); format: biochemical, murine; details: n = 3, picture: nM ± 95% CI
T2 sequence (P97321 1-761): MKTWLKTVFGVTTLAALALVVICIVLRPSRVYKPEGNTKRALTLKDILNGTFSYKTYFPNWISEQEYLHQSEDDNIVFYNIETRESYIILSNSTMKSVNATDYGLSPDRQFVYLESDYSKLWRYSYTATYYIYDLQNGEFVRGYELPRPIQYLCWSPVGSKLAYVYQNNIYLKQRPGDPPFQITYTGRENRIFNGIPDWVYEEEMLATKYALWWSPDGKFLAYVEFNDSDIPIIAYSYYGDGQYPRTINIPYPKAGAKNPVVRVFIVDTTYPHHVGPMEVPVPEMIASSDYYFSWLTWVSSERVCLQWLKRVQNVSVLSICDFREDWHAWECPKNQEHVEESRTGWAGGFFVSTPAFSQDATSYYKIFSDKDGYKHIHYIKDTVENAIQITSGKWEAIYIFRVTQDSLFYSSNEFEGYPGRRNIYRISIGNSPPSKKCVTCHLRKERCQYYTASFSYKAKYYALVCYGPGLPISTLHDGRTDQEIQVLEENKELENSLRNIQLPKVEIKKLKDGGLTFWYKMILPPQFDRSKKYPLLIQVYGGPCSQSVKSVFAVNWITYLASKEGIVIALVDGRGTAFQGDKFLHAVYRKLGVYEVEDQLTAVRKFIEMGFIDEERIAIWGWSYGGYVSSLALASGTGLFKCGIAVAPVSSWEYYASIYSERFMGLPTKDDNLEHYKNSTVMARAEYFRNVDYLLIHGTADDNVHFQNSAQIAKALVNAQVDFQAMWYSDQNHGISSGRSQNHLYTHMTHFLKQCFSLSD
Method: as §1, §2

SMILES	IC50 [1] [nM]	SI PREP/huFAP [1]	IC50 (muFAP) [nM]
CN1/C(=C/C=C/C=C/C2=[N+](CCCCCC(=O)NCCCOc3cccc4c(C(=O)NCC(=O)N5CC(F)(F)C[C@H]5C#N)ccnc34)c3ccc(S(=O)(=O)[O-])cc3C2(C)C)C(C)(C)c2cc(S(=O)(=O)O)ccc21 [eFAP-7, 1-(6-((3-((4-((2-((S)-2-cyano-4,4-difluoropyrrolidin-1-yl)-2-oxoethyl)carbamoyl)quinolin-8-yl)oxy)propyl)amino)-6-oxohexyl)-3,3-dimethyl-5-sulfo-2-((1E,3E)-5-((E)-1,3,3-trimethyl-5-sulfoindolin-2-ylidene)penta-1,3-dien-1-yl)-3H-indol-1-ium]	475 ± 104	112.3	4.56 ± 0.2
CN(CCCN1CCN(C(=O)CN2CCN(CC(=O)O)CCN(CC(=O)O)CCN(CC(=O)O)CC2)CC1)c1ccc2nccc(C(=O)NCC(=O)N3CC(F)(F)C[C@H]3C#N)c2c1 [FAPI-46, reference compound]	3480 ± 172	–	1.55 ± 1.2
N#C[C@@H]1CC(F)(F)CN1C(=O)CNC(=O)c1ccnc2c(OCCCNC(=O)CN3CCN(CC(=O)O)CCN(CC(=O)O)CCN(CC(=O)O)CC3)cccc12 [eFAP-6, (S)-2,2',2''-(10-(2-((3-((4-((2-(2-cyano-4,4-difluoropyrrolidin-1-yl)-2-oxoethyl)carbamoyl)quinolin-8-yl)oxy)propyl)amino)-2-oxoethyl)-1,4,7,10-tetraazacyclododecane-1,4,7-triyl)triacetic acid]	161 ± 53.6	138.6	0.58 ± 0.02
